# Test results from US20230085307A1, “PYRIDAZINONE COMPOUND AND HERBICIDE” (NISSAN CHEMICAL CORPORATION, priority 2019, published 2023).
# Experiments:
# blackgrass = assay: Test Example 5: herbicidal effect by foliage application, plastic box (Table 20, symbol J); format: in vivo, blackgrass (Alopecurus myosuroides); settings: foliage application, AAH 320 g/ha, three weeks after application
# Method in brief: (§1)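 Plants sown in sterilized diluvial soil and grown 14 days in a greenhouse at 25° C to 30° C, then sprayed on the foliage with the compound's emulsion diluted in water to a predetermined herbicide amount. Injury to weeds and crops scored three weeks after application on a visual rating scale.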
# Japanese bulrush = assay: Test Example 1: herbicidal activity, application before weed generation under submerged conditions (Table 16, symbol B); format: in vivo, Japanese bulrush (Schoenoplectus juncoides); settings: 320 g/ha applied herbicide
# Method in brief: (§2)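 Submerged Wagner pots (alluvial soil, 4 cm water) sown with weed seeds and planted with 2.5-leaf rice seedlings; emulsifiable concentrate diluted in water applied to water surface on sowing day. Held in greenhouse at 25-30 °C; injury scored 0-5 by herbicidal rate after three weeks.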
# redroot pigweed = assay: Test Example 5: herbicidal effect by foliage application, plastic box (Table 20, symbol N); format: in vivo, redroot pigweed (Amaranthus retroflexus); settings: foliage application, AAH 320 g/ha, three weeks after application
# Method in brief: as §1
# southern crabgrass = assay: Test Example 5: herbicidal effect by foliage application, plastic box (Table 20, symbol F); format: in vivo, southern crabgrass (Digitaria ciliaris); settings: foliage application, AAH 320 g/ha, three weeks after application
# Method in brief: as §1
# late watergrass = assay: Test Example 1: herbicidal activity, application before weed generation under submerged conditions (Table 16, symbol A); format: in vivo, late watergrass (Echinochloa oryzicola); settings: 320 g/ha applied herbicide
# Method in brief: as §2
# rice flat sedge = assay: Test Example 3: herbicidal effect by foliage application, Wagner pot (Table 18, symbol E); format: in vivo, rice flat sedge (Cyperus iria); settings: 320 g/ha
# Method in brief: (§3)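 Plants were sown in alluvial soil held under 0.1–0.5 cm standing water and grown 14 days in a greenhouse at 25–30 °C. An emulsifiable formulation, water-diluted to the set dose, was then sprayed onto the foliage, and effects were scored three weeks later using previously defined criteria.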
# green foxtail = assay: Test Example 5: herbicidal effect by foliage application, plastic box (Table 20, symbol G); format: in vivo, green foxtail (Setaria viridis); settings: foliage application, AAH 320 g/ha, three weeks after application
# Method in brief: as §1
# Italian ryegrass = assay: Test Example 5: herbicidal effect by foliage application, plastic box (Table 20, symbol K); format: in vivo, Italian ryegrass (Lolium multiflorum); settings: foliage application, AAH 320 g/ha, three weeks after application
# Method in brief: as §1
# chickweed = assay: Test Example 5: herbicidal effect by foliage application, plastic box (Table 20, symbol P); format: in vivo, common chickweed (Stellaria media); settings: foliage application, AAH 320 g/ha, three weeks after application
# Method in brief: as §1
# lambsquarters = assay: Test Example 5: herbicidal effect by foliage application, plastic box (Table 20, symbol O); format: in vivo, lambsquarters (Chenopodium album); settings: foliage application, AAH 320 g/ha, three weeks after application
# Method in brief: as §1
# oval-leafed pondweed = assay: Test Example 1: herbicidal activity, application before weed generation under submerged conditions (Table 16, symbol C); format: in vivo, oval-leafed pondweed (Monochoria vaginalis); settings: 320 g/ha applied herbicide
# Method in brief: as §2
# windgrass = assay: Test Example 5: herbicidal effect by foliage application, plastic box (Table 20, symbol L); format: in vivo, windgrass (Apera spica-venti); settings: foliage application, AAH 320 g/ha, three weeks after application
# Method in brief: as §1
# persian speedwell = assay: Test Example 5: herbicidal effect by foliage application, plastic box (Table 20, symbol R); format: in vivo, Persian speedwell (Veronica persica); settings: foliage application, AAH 320 g/ha, three weeks after application
# Method in brief: as §1
# false cleavers = assay: Test Example 5: herbicidal effect by foliage application, plastic box (Table 20, symbol Q); format: in vivo, false cleavers (Galium spurium); settings: foliage application, AAH 320 g/ha, three weeks after application
# Method in brief: as §1
# barnyard grass [1] = assay: Test Example 3: herbicidal effect by foliage application, Wagner pot (Table 18, symbol H); format: in vivo, barnyard grass (Echinochloa crus-galli); settings: 320 g/ha
# Method in brief: as §3
# velvetleaf = assay: Test Example 5: herbicidal effect by foliage application, plastic box (Table 20, symbol M); format: in vivo, velvetleaf (Abutilon theophrasti); settings: foliage application, AAH 320 g/ha, three weeks after application
# Method in brief: as §1
# wild oat = assay: Test Example 5: herbicidal effect by foliage application, plastic box (Table 20, symbol I); format: in vivo, wild oat (Avena fatua); settings: foliage application, AAH 320 g/ha, three weeks after application
# Method in brief: as §1
# barnyard grass [2] = assay: Test Example 5: herbicidal effect by foliage application, plastic box (Table 20, symbol H); format: in vivo, barnyard grass (Echinochloa crus-galli); settings: foliage application, AAH 320 g/ha, three weeks after application
# Method in brief: as §1
# Chinese sprangletop = assay: Test Example 3: herbicidal effect by foliage application, Wagner pot (Table 18, symbol D); format: in vivo, chinese sprangletop (Leptochloa chinensis); settings: 320 g/ha
# Method in brief: as §3
smiles,measurement,setting,value
Cc1ccccc1C(=O)Oc1c(C)nn(C)c(=O)c1-c1c(-c2ccc3c(c2)OCCO3)sc2ccccc12 [1-093],"J: blackgrass, herbicidal effect",blackgrass,0 (Herbicidal rate of 5% or less (almost no effect))
same,Herbicidal effect on B: Japanese bulrush (grade 0-5),Japanese bulrush,1 (Herbicidal rate of 5% or more and less than 20%)
same,"N: redroot pigweed, herbicidal effect",redroot pigweed,3 (Herbicidal rate of 40% or more and less than 70%)
same,"F: southern crabgrass, herbicidal effect",southern crabgrass,0 (Herbicidal rate of 5% or less (almost no effect))
same,Herbicidal effect on A: late watergrass (grade 0-5),late watergrass,3 (Herbicidal rate of 40% or more and less than 70%)
same,"herbicidal effect on E (rice flat sedge), rating 0-5",rice flat sedge,5 (Herbicidal rate of 90% or more (almost completely withered))
same,"G: green foxtail, herbicidal effect",green foxtail,0 (Herbicidal rate of 5% or less (almost no effect))
same,"K: Italian ryegrass, herbicidal effect",Italian ryegrass,0 (Herbicidal rate of 5% or less (almost no effect))
same,"P: chickweed, herbicidal effect",chickweed,1 (Herbicidal rate of 5% or more and less than 20%)
same,"O: lambsquarters, herbicidal effect",lambsquarters,2 (Herbicidal rate of 20% or more and less than 40%)
same,Herbicidal effect on C: oval-leafed pondweed (grade 0-5),oval-leafed pondweed,0 (Herbicidal rate of 5% or less (almost no effect))
same,"L: windgrass, herbicidal effect",windgrass,0 (Herbicidal rate of 5% or less (almost no effect))
same,"R: persian speedwell, herbicidal effect",persian speedwell,4 (Herbicidal rate of 70% or more and less than 90%)
same,"Q: false cleavers, herbicidal effect",false cleavers,0 (Herbicidal rate of 5% or less (almost no effect))
same,"herbicidal effect on H (barnyard grass), rating 0-5",barnyard grass [1],3 (Herbicidal rate of 40% or more and less than 70%)
same,"M: velvetleaf, herbicidal effect",velvetleaf,5 (Herbicidal rate of 90% or more (almost completely withered))
same,"I: wild oat, herbicidal effect",wild oat,0 (Herbicidal rate of 5% or less (almost no effect))
same,"H: barnyard grass, herbicidal effect",barnyard grass [2],0 (Herbicidal rate of 5% or less (almost no effect))
same,"herbicidal effect on D (Chinese sprangletop), rating 0-5",Chinese sprangletop,0 (Herbicidal rate of 5% or less (almost no effect))
